According to PMC8745601 (International Journal of Molecular Sciences, 2021):

What was measured:
P-gp = molecular target: T1, P-gp (Homo sapiens, UniProt P08183); experiment: Transwell assay, MDCKII cells stably expressing P-gp; assay type: cell-based; conditions: 100 µmol/L doxorubicin; MDCKII-P-gp on Transwell
T1 construct: expressed in transfected cells; host or cells: MDCKII
Procedure: (§1) In brief, MDCKII cells stably expressing P-gp or BCRP were seeded on 0.4 µm Transwell® membrane inserts (200.000 cells/insert; Ø6.5 mm, growth area 0.33 cm2) and allowed to differentiate for five days. The integrity of the monolayer was confirmed by monitoring the trans-epithelial electrical resistance (TEER) using the EVOMX system (WPI, Sarasota, FL, USA). […] Every 30 min, the incubation buffer was removed from the receiver compartment and replaced by a freshly preheated buffer for a total time of 2.5 h.

BCRP = molecular target: T2, BCRP (Homo sapiens, UniProt Q9UNQ0); experiment: Transwell assay, MDCKII cells stably expressing BCRP; assay type: cell-based; conditions: 100 µmol/L doxorubicin; MDCKII-BCRP on Transwell
T2 construct: expressed in transfected cells; host or cells: MDCKII
T2 sequence (Q9UNQ0 1-655): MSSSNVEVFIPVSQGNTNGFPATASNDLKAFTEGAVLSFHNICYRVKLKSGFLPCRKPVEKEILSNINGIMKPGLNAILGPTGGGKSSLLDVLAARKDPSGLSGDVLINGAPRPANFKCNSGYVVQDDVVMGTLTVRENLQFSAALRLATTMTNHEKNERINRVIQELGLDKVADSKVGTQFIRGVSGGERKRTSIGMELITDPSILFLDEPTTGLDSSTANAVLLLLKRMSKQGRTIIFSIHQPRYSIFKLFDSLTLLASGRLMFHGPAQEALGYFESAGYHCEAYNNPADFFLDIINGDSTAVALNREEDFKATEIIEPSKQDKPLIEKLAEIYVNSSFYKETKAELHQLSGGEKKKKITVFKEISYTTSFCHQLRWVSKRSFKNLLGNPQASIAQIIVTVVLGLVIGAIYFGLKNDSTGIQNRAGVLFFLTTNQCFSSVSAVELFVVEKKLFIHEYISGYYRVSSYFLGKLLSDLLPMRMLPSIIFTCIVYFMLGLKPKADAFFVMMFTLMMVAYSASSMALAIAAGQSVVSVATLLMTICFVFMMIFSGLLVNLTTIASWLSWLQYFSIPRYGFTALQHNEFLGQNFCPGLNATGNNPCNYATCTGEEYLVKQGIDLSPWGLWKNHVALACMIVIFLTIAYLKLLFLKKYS
Procedure: as §1

[1] = test system: transfected cell lines and tumorous cell lines; experiment: Short-term cytotoxicity check (Presto Blue cell viability assay); assay type: cell-based; conditions: concentrations tested (100 µmol/L), data not shown
OATP1A2*2/*3 = experiment: Doxorubicin uptake clearance by OATP1A2 genetic variants versus wild type; assay type: cell-based, human; conditions: OATP1A2*2 and *3 versus OATP1A2*1
Procedure: (§2) Cellular uptake studies: For all transport studies, cells were seeded in 24-well plates and incubated in a full growth medium at an initial density of 200,000 cells/well for 3 days. Before starting each transport experiment, cells were washed with a pre-warmed (37 °C) incubation buffer [64]. […] Protein concentration of whole cell lysate was determined to quantify cell density after each experiment using the BCA assay according to the manufacturer’s instructions (Pierce, Rockford, IL, USA).
(§3) Protein abundance of OATP1A2*1–*3 and OCT1–3 were measured by mass spectrometry-based targeted proteomics using a validated LC-MS/MS method as recently described [65].
Statistical evaluation: All experiments were performed at least three times unless otherwise noted. The OATP1A2*1–*3 and OCT1-3 net uptake was obtained by subtracting the uptake into wild-type cells from that of the transporter-transfected cells. Km and Vmax were assessed using Prism 5.01 (GraphPad Software, San Diego, CA, USA). […] Km and Vmax are presented as arithmetic means ± standard deviation.

[2] = pH 7.4; cited from earlier work
OATP1A2*3 = molecular target: T3, OATP1A2*3 (Homo sapiens, UniProt P46721, E172D); experiment: in vitro
T3 sequence (P46721 1-670 E172D): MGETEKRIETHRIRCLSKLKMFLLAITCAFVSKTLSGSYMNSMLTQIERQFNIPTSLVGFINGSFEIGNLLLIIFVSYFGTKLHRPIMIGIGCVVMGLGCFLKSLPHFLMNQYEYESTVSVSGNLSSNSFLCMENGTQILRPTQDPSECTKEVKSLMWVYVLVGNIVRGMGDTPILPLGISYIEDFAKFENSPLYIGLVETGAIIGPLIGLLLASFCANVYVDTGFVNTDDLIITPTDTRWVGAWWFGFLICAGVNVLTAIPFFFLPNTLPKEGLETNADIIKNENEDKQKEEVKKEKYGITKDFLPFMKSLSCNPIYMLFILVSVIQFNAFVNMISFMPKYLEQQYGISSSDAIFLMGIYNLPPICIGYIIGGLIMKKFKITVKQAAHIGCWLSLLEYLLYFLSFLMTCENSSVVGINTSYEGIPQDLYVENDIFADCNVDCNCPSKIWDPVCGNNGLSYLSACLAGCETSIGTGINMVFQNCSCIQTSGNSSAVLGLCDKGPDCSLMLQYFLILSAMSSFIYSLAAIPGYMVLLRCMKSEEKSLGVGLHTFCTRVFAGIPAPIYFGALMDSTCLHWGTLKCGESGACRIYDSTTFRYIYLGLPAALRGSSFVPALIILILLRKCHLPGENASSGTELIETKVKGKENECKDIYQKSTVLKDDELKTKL
Procedure: as §2, §3
200 μL of each cell lysate sample was mixed with 25 μL internal standard (5 µg/mL daunorubicin), 25 μL citric acid (1%), and 400 μL ice-cold acetonitrile for protein precipitation. […] The clear supernatant was transferred to HPLC vials. The measurement and quantitative evaluation were carried out using the LC-MS/MS system QTRAP 4000® (AB SCIEX, Darmstadt, Germany) and the Software Analyst® 1.4 (Applied Biosystems, Darmstadt, Germany).
Statistical evaluation: All experiments were performed at least three times unless otherwise noted. The OATP1A2*1–*3 and OCT1-3 net uptake was obtained by subtracting the uptake into wild-type cells from that of the transporter-transfected cells. […]

T1 sequence (P08183 whole entry): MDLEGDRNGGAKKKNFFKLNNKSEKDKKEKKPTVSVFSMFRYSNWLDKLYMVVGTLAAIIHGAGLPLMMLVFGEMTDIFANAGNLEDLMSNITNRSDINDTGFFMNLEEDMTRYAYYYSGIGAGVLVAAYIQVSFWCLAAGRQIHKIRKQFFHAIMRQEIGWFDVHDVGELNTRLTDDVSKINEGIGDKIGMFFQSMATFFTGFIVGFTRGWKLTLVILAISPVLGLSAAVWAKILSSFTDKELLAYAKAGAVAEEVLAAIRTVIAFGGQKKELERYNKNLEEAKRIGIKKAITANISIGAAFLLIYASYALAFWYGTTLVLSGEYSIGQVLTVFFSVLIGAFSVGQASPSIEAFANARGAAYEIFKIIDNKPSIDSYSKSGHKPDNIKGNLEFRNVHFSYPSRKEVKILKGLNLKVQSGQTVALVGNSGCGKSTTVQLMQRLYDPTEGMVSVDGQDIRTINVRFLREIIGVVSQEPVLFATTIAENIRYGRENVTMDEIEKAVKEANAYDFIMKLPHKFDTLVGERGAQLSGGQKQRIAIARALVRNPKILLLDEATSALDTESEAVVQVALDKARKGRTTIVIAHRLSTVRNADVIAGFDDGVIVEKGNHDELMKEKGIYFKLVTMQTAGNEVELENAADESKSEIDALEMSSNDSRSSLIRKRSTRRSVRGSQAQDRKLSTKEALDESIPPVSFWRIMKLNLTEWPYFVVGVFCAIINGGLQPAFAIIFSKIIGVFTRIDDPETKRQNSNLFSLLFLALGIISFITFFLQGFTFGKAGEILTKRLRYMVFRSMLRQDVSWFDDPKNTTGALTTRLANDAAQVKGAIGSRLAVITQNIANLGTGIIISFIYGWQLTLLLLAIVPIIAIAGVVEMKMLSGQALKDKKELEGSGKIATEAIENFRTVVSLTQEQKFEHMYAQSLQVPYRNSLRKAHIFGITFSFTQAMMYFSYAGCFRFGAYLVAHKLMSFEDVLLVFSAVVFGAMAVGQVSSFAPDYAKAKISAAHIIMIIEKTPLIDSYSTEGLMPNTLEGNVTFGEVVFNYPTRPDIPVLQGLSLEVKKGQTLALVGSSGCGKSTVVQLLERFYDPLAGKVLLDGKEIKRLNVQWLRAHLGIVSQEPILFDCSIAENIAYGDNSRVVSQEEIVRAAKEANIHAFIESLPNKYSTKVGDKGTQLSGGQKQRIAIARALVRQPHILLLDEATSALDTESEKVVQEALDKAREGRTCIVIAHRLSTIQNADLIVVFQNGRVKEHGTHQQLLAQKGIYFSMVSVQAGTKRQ

In the case of COc1cccc2c1C(=O)c1c(O)c3c(c(O)c1C2=O)C[C@@](O)(C(=O)CO)C[C@@H]3O[C@H]1C[C@H](N)[C@H](O)[C@H](C)O1 [doxorubicin, Doxorubicin], the “vectorial transport of doxorubicin by P-gp” value (P-gp) is reported as “vectorial transport from the basolateral to the apical compartment”, the “vectorial transport of doxorubicin by BCRP” value (BCRP) is reported as “vectorial transport from the basolateral to the apical compartment” and the “cytotoxic effects within one hour” value [1] is reported as “no cytotoxic effects”. For the same compound, the “diminished cellular uptake clearance by the genetic variants” value (OATP1A2*2/*3) was 51–70%, the “present as cationic moiety” value [2] was 89% and the Km (OATP1A2*3; HEK293 cells stably expressing OATP1A2*3) was 5.94 ± 3.07 µM. For the same compound, the microsomal CLint (OATP1A2*3; other cell line) was 2.32 ± 0.99 µL/min/mg.
